The values below come from publication PMC12677599 (Advanced Science, 2025).

Holding throughout (format): cell-based
The subject of one assay is HEK-293 normal cell line. As to the kind of experiment: cells. To be noted: Homo sapiens, HEK293; Table S11; MTT; read-out: IC50 Value of chemotherapeutics, HEK-293. The gist of the method: (§1)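 MTT assay. Tumor lines seeded at 8000 cells per well (24 h) and serum-starved 4–6 h; normal lines (MRC-5, HEK-293) seeded at 10 000 cells per well (48 h). Compounds for 24 h in SFM, then MTT for 2 h (tumor) or 4 h (normal), absorbance at 570 nm; viability normalized to blank and 0.5% DMSO growth control.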

For a further assay, the system named is H460 cell line. As to the kind of experiment: cells. To be noted: Homo sapiens, NCI-H460; Table S11; MTT; read-out: IC50 Value of chemotherapeutics, H460. The gist of the method: as §1
Assay [1] has as its system H460 cells. The experiment in a line: Killing rate evaluation, calcein-AM/PI double staining. Conditions: IC50 concentration, n = 2. The protocol: Calcien‐AM/PI double staining assay was used. NCI‐H460 cells were seeded in a chamber‐slide (154526, Thermo Fisher Scientific) at a density of 100 000 cells per unit in a volume of 500 µL and cultured for 24 h. After starvation with 300 µL of SFM for 4 h, cells were treated with 500 µL of compound solutions with different concentrations for 2, 4, 6, 8, 10 h, respectively. Cells treated with 0.5% DMSO in SFM served as control group. Subsequently, cells in each unit were washed with EBSS once, and incubated with 500 µL of 2 µg mL^−1 calcien‐AM solution at 37 °C for 20 min. Afterward, cells were stained with 500 µL of 2 µg mL^−1 PI solution at room temperature for 15 min and washed with EBSS 3 times. Finally, 300 µL of EBSS was added into each unit. Live (green fluorescence from calcein‐AM) and dead (red fluorescence from PI) cells were then observed and imaged under a fluorescence microscope (LEICA Dmi8). This evaluation was conducted with two biological replicates. Quantitative analyses of living cells were processed with ImageJ software (threshold set: 8‐255).

In assay [2] the test system is H460 cells. The experiment in a line: LDH release assay. To be noted: H460, 4 h dosing at each IC50 value; n = 3. The protocol: The seeding and starvation process were the same as cell antiproliferation evaluation. Cells were treated with 100 µL of compound solutions with different concentrations (compound 266 was tested at 12 µM) for 4 or 24 h. Cells treated with 0.5% DMSO in SFM and 1% Triton X‐100 in SFM served as blank control and positive control, respectively. Afterward, LDH working solution was prepared according to the instructions of the Cytotoxicity Detection Kit (LDH). Fifty µL of supernatant was transferred to another 96‐well plate, and 50 µL of LDH working solution was added to each well, followed by a 40 min incubation at room temperature. Subsequently, the absorbance of each well was measured by the plate reader at 490 nm.
The LDH release ratio was calculated as (3) LDHrelease%=ODSamplegroup−ODBlank/ODPositivegroup−ODBlank×100%
A general note: LDH leaks from cells whose membrane has failed.

By IC50 is commonly meant the point on the concentration scale where inhibition reaches its midpoint. Take `COc1cc([C@@H]2c3cc4c(cc3[C@@H](O[C@@H]3O[C@@H]5CO[C@@H](C)O[C@H]5[C@H](O)[C@H]3O)[C@H]3COC(=O)[C@H]23)OCO4)cc(OC)c1O` [Etoposide, etoposide, reference compound]: the IC50 was determined as 115 ± 14.7 µM with HEK-293 normal cell line and 169 ± 29.2 µM in the assay on H460 cell line. In the assay on H460 cells [1], the “cells eliminated within 10 h” value is on record as “≈ 10%”. The LDH release ratio result in the assay on H460 cells [2] is recorded as “no positive results”.
